Literature values in patent US20210169807A1, “PHARMACEUTICAL COMPOSITION COMPRISING AN ATYPICAL ANTIPSYCHOTIC AGENT AND METHOD FOR THE PREPARATION THEREOF” (priority 2018, published 2021).
Where two headings read alike, the source gives them in different places.

solubility (in 0.1N HCl): slightly soluble | solubility (in dichloromethane): sparingly soluble | solubility (in water): insoluble
SMILES: Cc1nc2n(c(=O)c1CCN1CCC(c3noc4cc(F)ccc34)CC1)CCCC2O (stereo not drawn) [Paliperidone, 3-[2-[4-(6-fluoro-1,2-benzisoxazol-3-yl)-1-piperidinyl]ethyl]-6,7,8,9-tetrahydro-9-hydroxy-2-methyl-4H-pyrido[1,2-a]pyrimidin-4-one]
